Experimental data as given in article PMC9246256, “Structure-based optimization of type III indoleamine 2,3-dioxygenase 1 (IDO1) inhibitors” (Journal of Enzyme Inhibition and Medicinal Chemistry, 2022).
Values joined by “and” are separate entries in the source; they are usually repeats but may differ in a detail not shown here. Identical values can stand only once. Like-named read-outs stand apart in the source and are kept apart here. Each block holds one compound with its values, some of them ahead of it.

Legend:
[1] = target: T1, purified recombinant IDO1 (Homo sapiens, UniProt P14902); test: Enzymatic IDO1 inhibition assay (ascorbate/methylene blue reduction system, HPLC detection of kynurenine); format: biochemical; conditions: for LE [kcal/mol/HA]: ligand efficiency, LE = -RT log(IC50)/number of heavy atoms, from enzymatic IC50; for IC50: enzymatic, L-Trp 100 µM, 0.01% Triton X-100, 5% DMSO, 20 min at room temperature, pH 6.5, duplicates
T1 construct: Full-length human IDO1 gene was cloned into the pET-28a vector; inferred from pET-28a vector and HisTrap purification; made in house; host or cells: E. coli Rosetta (DE3)
Description: Enzymatic IC50 values were measured with the ascorbate/methylene blue reduction system[85] in presence of a non-ionic detergent to reduce compound aggregation as described before[28]. Kynurenine and L-Trp concentrations were determined by HPLC through UV detection.
Full-length human IDO1 gene was cloned into the pET-28a vector and expressed in E. coli Rosetta (DE3) cells. […] The culture was harvested and frozen at −80 °C until further use. The frozen cells were lysed by sonication in 20 mM Tris pH 7, 400 mM NaCl, 1 mM MgCl2, 20 mM imidazole, 1 mM DTT, 0.5 mg/mL Lysozyme and Protease inhibitor. After centrifugation, the supernatant was loaded into a HisTrap HP column pre-equilibrated with buffer containing 20 mM Tris pH 7, 500 mM NaCl and 20 mM imidazole, and eluted with the same buffer containing 500 mM imidazole. Fractions containing IDO1 were pooled, concentrated, and injected on a size exclusion chromatography column (HiLoad Superdex S75 16/60) to increase purity. hIDO1 fractions were concentrated to 20 mg/mL in 20 mM Tris pH 7 and 150 mM NaCl.
The enzymatic inhibition assays were performed as described by Takikawa et al.[130] with some modifications. Briefly, the reaction mixture (100 µL) contained potassium phosphate buffer (100 mM, pH 6.5) ascorbic acid (20 mM), catalase (400 units/mL), methylene blue (10 µM), purified recombinant IDO1 (2.5 ng/µL), L-Trp (100 µM), Triton X-100 (0.01%) and DMSO (5 µL). The inhibitors were serially diluted 3-fold for at least 8 different concentrations. After incubation at room temperature for 20 min, the reaction was stopped in its linear phase by addition of trichloroacetic acid solution (40 mL, 30% w/v), and the samples were incubated at 50 °C for 30 min. After centrifugation, 80 µl of supernatant from each well were used for HPLC analysis. The mobile phase for HPLC analysis was composed of 50% (v/v) of methanol and 50% of sodium citrate buffer (40 mM, pH 2.4) containing 400 µM sodium dodecyl sulphate. […] All assays were carried out in duplicates. The activity (Act) of each compound was calculated as Act = RT log(IC50) in analogy to the relation between the binding free energy and the Ki value. The ligand efficiency (LE) was calculated as LE = −Act/NHA, where NHA is the number of non-hydrogen atoms (heavy atoms) in the compound.

hIDO1 = target: T2, hIDO1 (Homo sapiens, UniProt P14902); test: Cellular hIDO1 inhibition (kynurenine production) in transiently transfected HEK 293 T cells; format: cell-based
T2 construct: The full ORF of hIDO1 was cloned into the mammalian expression vector pcDNA6/myc-His; myc-His (vector-encoded); host or cells: HEK 293 T
Description: (§1) We tested the cellular hIDO1 inhibitory activity and toxicity of 30 active compounds at a single concentration (Figure 6 and Table 8). As some of the aniline derivatives reacted with Ehrlich’s reagent (p-dimethylaminobenzaldehyde, p-DMAB) used to quantify kynurenine, the kynurenine content of these samples was determined by HPLC. To be able to detect also weak inhibition, compounds were tested at the high concentration of 200 µM (Figure 6A and B, filled bars), except for less soluble compounds (52, 148, 149 and 153), which were tested at a concentration of 50 µM (Figure 6A and B, empty bars).
The cDNA encoding hIDO1 (NCBI, NM 0021464.3) was purchased from Origene as pCMV6-Entry vector (RC206592). The full ORF of hIDO1 was cloned into the mammalian expression vector pcDNA6/myc-His from Invitrogen. Human embryonic kidney 293 T (HEK 293 T) cells were transiently transfected with the plasmid construct encoding hIDO1. A 75 cm^2 flask containing HEK 293 T cells at a confluency of 70% was transfected with jetPEI DNA transfection reagent (Polyplus-transfection), according to manufacturer’s protocol. A total of 20 µg of pcDNA-IDO1 along with 5 µg of pcDNA-GFP plasmid were used for the transfection; GFP was used to evaluate transfection efficiency prior to the cellular assays. 16–18 h post-transfection the 293 T cells were detached with trypsin, centrifuged, and re-suspended in 25 mL of DMEM medium without phenol red, supplemented with penicillin and streptomycin, 10% foetal bovine serum and 1 mM pyruvate (Gibco). Subsequently, 100 µL of cells were distributed to each well of two 96-well round-bottom plates that had been pre-loaded with 100 µL DMEM and the small organic test molecule in DMSO (for a final DMSO concentration of 2%). DMEM medium contains 78 µM L-Trp and was supplemented with 500 µM of L-Trp. Cells transfected with hIDO1 were incubated for 7 h at 37 °C in a CO2 incubator. The reaction was stopped in its linear phase by adding trichloroacetic acid (TCA) to the medium at a final concentration of 4%. Plates were centrifuged for 15 min at 4,000 rpm. 100 µL of supernatant was added to 100 µL of 2% (w/v) DMAB in glacial acetic acid. After 10 min the absorbance was measured at a wavelength of 480 nm to detect kynurenine formation. Alternatively, kynurenine content was determined by HPLC as done for the enzymatic assay.

HEK 293 T cells = test: Cell viability / cellular toxicity (DAPI staining, cytometry); format: cell-based, human; conditions: compound 200 µM, 7 h
Description: as §1
Following DMSO (negative control) or inhibitor treatments, apoptotic cells were detected by 4′,6-diamidino-2-phenylindole (DAPI) staining. Briefly, after 7 h of incubation, cells were washed with PBS, resuspended in PBS with 1 µg/mL DAPI and immediately analysed using a BD LSR II cytometer. A 405 nm laser with 450/50 nm bandpass filter was used to collect data.

T1 sequence (P14902 whole entry): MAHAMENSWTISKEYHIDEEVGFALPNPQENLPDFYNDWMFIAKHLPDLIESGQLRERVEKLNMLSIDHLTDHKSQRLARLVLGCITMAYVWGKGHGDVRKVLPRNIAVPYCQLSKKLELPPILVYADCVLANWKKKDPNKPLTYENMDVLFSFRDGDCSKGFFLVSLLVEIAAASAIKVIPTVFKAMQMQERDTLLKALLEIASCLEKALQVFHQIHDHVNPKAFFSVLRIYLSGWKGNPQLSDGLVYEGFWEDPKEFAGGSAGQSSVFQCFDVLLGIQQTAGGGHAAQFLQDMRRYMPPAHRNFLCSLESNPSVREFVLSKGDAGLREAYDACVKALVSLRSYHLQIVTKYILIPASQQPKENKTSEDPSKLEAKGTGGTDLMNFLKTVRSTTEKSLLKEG
T2 sequence (P14902 whole entry): as above

- IC50 ([1]; read-out: IC50 [ μ M] (SD)): 16 µM
- LE [kcal/mol/HA] [1]: 0.55 kcal/mol/HA
Compound: Nc1cccnc1-c1nc[nH]n1 [Compound 160, 2-(1H-1,2,4-Triazol-3-yl)pyridine-3-amine]

- inhibition at 200 µM (hIDO1): 3.9%
- IC50 ([1]; read-out: IC50 [ μ M] (SD)): 650 µM
- LE [kcal/mol/HA] [1]: 0.33 kcal/mol/HA
Compound: O=C(c1cccnc1)c1cnn[nH]1 [Compound 121, Pyridin-3-yl(1H-1,2,3-triazol-5-yl)methanone]
- Tox. [%] (HEK 293 T cells): 0 (0) %

- inhibition at 200 µM (hIDO1): 23%
- IC50 ([1]; read-out: IC50 [ μ M] (SD)): 67 µM and 68 µM
- LE [kcal/mol/HA] [1]: 0.47 kcal/mol/HA
Compound: O=C(c1ccsc1)c1cnn[nH]1 [Compound 117, Thiophen-3-yl(1H-1,2,3-triazol-5-yl)methanone]
- Tox. [%] (HEK 293 T cells): 0 (0) %

- IC50 ([1]; read-out: IC50 [ μ M] (SD)): 32 µM
- LE [kcal/mol/HA] [1]: 0.52 kcal/mol/HA
Compound: Oc1ccccc1-n1cncn1 [Compound 171]

- IC50 ([1]; read-out: IC50 [ μ M] (SD)): > 1000 µM
Compound: O=C(c1ccc(Br)cc1)c1[nH]nnc1CO [Compound 123, (4-Bromophenyl)(4-(hydroxymethyl)-1H-1,2,3-triazol-5-yl)methanone]

- IC50 ([1]; read-out: IC50 [ μ M] (SD)): > 1000 µM
Compound: Fc1ccc(-c2nc[nH]n2)cc1 [Compound 134, 3–(4-Fluorophenyl)-1H-1,2,4-triazole]

- IC50 ([1]; read-out: IC50 [ μ M] (SD)): 250 µM
- LE [kcal/mol/HA] [1]: 0.41 kcal/mol/HA
Compound: Clc1cncc(-c2nc[nH]n2)n1 [Compound 162, 2-Chloro-6-(1H-1,2,4-triazol-3-yl)pyrazine]

- IC50 ([1]; read-out: IC50 [ μ M] (SD)): 63 µM
- LE [kcal/mol/HA] [1]: 0.41 kcal/mol/HA
Compound: Cc1c(Br)ccc(N)c1-c1nc[nH]n1 [Compound 155, 4-Bromo-3-methyl-2-(1H-1,2,4-triazol-3-yl)aniline]

More lines, now with the values behind:

Compound: Cc1cccc(-c2cnn[nH]2)c1 [Compound 21]
- LE [kcal/mol/HA] [1]: 0.53 kcal/mol/HA

Compound: Cc1cccc2sc3nncn3c12 [Compound 167, tryclazole, reference compound]
- IC50 ([1]; IC50 [ μ M] (SD)): > 1000 µM

Compound: Cc1[nH]nnc1-c1cccc(Cl)c1 [Compound 63, 4–(3-Chlorophenyl)-5-methyl-1,2,3-triazole]
- IC50 ([1]; read-out: IC50 [ μ M] (SD)): > 1000 µM

Compound: c1ccc(Oc2cnn[nH]2)cc1 [Compound 82, 4-(Phenoxy)-1,2,3-triazole]
- IC50 ([1]; read-out: IC50 [ μ M] (SD)): > 1000 µM

Compound: O=C(c1ccoc1)c1cnn[nH]1 [Compound 115, Furan-3-yl(1H-1,2,3-triazol-5-yl)methanone]
- inhibition at 200 µM (hIDO1): 73%
- Tox. [%] (HEK 293 T cells): 0 (0) %
- IC50 ([1]; read-out: IC50 [ μ M] (SD)): 16 µM
- LE [kcal/mol/HA] [1]: 0.55 kcal/mol/HA

Compound: O=C(c1cnn[nH]1)c1ccco1 [Compound 114, Furan-2-yl(1H-1,2,3-triazol-5-yl)methanone]
- inhibition at 200 µM (hIDO1): 20%
- Tox. [%] (HEK 293 T cells): 0 (0) %
- IC50 ([1]; read-out: IC50 [ μ M] (SD)): 230 µM
- LE [kcal/mol/HA] [1]: 0.41 kcal/mol/HA

Compound: O=C(c1cnn[nH]1)c1ccccc1Cl [Compound 100, (2-Chlorophenyl)(1H-1,2,3-triazol-5-yl)methanone]
- IC50 ([1]; read-out: IC50 [ μ M] (SD)): > 1000 µM

Compound: O=S(=O)(c1ccccc1)c1c[nH]nn1 [Compound 84, 4-(Phenylsulfonyl)-1H-1,2,3-triazole]
- IC50 ([1]; read-out: IC50 [ μ M] (SD)): > 1000 µM

Compound: Oc1ccc(CCc2ccccc2)cc1-c1cnn[nH]1 [Compound 39, 4-Phenylethyl-2-(1H-1,2,3-triazol-5-yl)phenol]
- IC50 ([1]; read-out: IC50 [ μ M] (SD)): 160 µM
- LE [kcal/mol/HA] [1]: 0.26 kcal/mol/HA

Compound: Clc1cc(Cl)cc(-c2c[nH]nn2)c1 [Compound 50, 4–(3,5-Dichlorophenyl)-1,2,3-triazole]
- IC50 ([1]; read-out: IC50 [ μ M] (SD)): 58 µM
- LE [kcal/mol/HA] [1]: 0.44 kcal/mol/HA

Compound: c1ccc(Sc2c[nH]nn2)cc1 [Compound 83, 4-(Phenylthio)-1,2,3-triazole]
- IC50 ([1]; read-out: IC50 [ μ M] (SD)): 590 µM
- LE [kcal/mol/HA] [1]: 0.37 kcal/mol/HA
